Data reported in patent US11072741B2, “Optically anisotropic layer, method for producing the optically anisotropic layer, a laminate, polarizing plate, display device, liquid crystal compound, method for producing the liquid crystal compound, and carboxylic acid compound” (FUJIFILM Corporation, priority 2014, dated 2021).

Tests used:
[1] = Evaluation of phase transition temperature by polarizing microscope; format: physicochemical; settings: during temperature increase
Source text: Here, the temperature at which the compound transitions from the smectic phase to the nematic phase may be easily measured by observation of the composition employing polarized light microscopy. For example, in the nematic phase, a schlieren texture specific to the nematic phase is observed, while the texture transitions to a focal conic fan texture in a smectic A phase. Therefore, the phase transition temperature can be measured by observing the textures with a polarizing microscope while increasing or decreasing the temperature.
The phase transition temperatures of the synthesized liquid crystal compounds of the Examples and Comparative Examples were observed using a polarizing microscope to evaluate the degrees of temperature decrease. Specifically, the compounds of the Examples were compared to the compounds of the Comparative Examples, which have different structures for the side chain portions thereof. That is, the phase transition temperature of a compound of a Comparative Example having Ar (the aromatic ring at the center of General Formula 1) in common with the Examples and a side chain portion represented by Formula (Ia) below was used as a reference. Evaluations of A through C were assigned according to the degree of temperature decrease from the reference phase transition temperature.
(§1) For example, compound (I-1) and (I-2) were compared to Comparative Compound (Ia-1), and Compound (III-3) was compared to Comparative Compound (IIIa-3). The evaluation was carried out based on the following criteria.
A: decrease in melting point or Sm-N (smectic-nematic) transition temperature is 20° C. or greater
B: decrease in melting point or Sm-N (smectic-nematic) transition temperature is 5° C. or greater and less than 20° C.
C: decrease in melting point or Sm-N (smectic-nematic) transition temperature is less than 5° C.
With respect to the phase transition temperature, the numerical value in parentheses represents the numerical value during temperature decrease, and other numerical values represent a numerical value during temperature increase.

[2] = Measurement and evaluation of solubility in MEK and CPN; format: physicochemical; settings: room temperature, visual observation, 5 wt % increments; for Solubility CPN wt %: cyclopentanone; for Solubility MEK wt %: methyl ethyl ketone
Description: Solubility measurements of the synthesized liquid crystal compounds were conducted by the following method. 50 mg of each compound was weighted into a 1.5 mL sample bottle, and solvent was added until the solid component became 40 wt % (75 mg). The solubility was determined to be 40 wt % if clear under visual observation after shaking well manually at room temperature. If undissolved residue was present, solvent was added such that the solid component became 35 wt % (+18 mg). The solubility was determined to be 35 wt % if clear under visual observation after shaking well manually at room temperature. If undissolved residue was present, solvent was added such that the solid component became 30 wt %. Similar operations were performed in increments of 5 wt %, and repeated until the solid component became 5 wt %. If undissolved residue was present, the solubility was determined to be less than 5 wt % (<5 wt %), and measurements were completed. MEK (methyl ethyl ketone) and CPN (cyclopentanone) were utilized as solvents for measuring solubility.
The measured values of solubility were evaluated. The evaluations were conducted by using solubility of a compound of a Comparative Example having Ar (the aromatic ring at the center of General Formula 1) in common with the Examples and a side chain portion represented by Formula (Ia) as a reference, in a manner similar to that in the evaluation of the phase transition temperature. Evaluations of A through C were assigned according to the degree of improvement in solubility from the reference solubility.
as §1
A: solubility improved twofold or greater in plural solvents or a single solvent
B: solubility was the same or improved up to twofold in plural solvents or a single solvent
C: no improvement in solubility in plural solvents or a single solvent

C=CC(=O)OCCCCCCOc1ccc(OC(=O)[C@H]2CC[C@H](C(=O)Oc3ccc(OC(=O)[C@H]4CC[C@H](C(=O)Oc5ccc(OCCCCCCOC(=O)C=C)cc5)CC4)c(/C=N/Nc4nc5ccccc5s4)c3)CC2)cc1 [VIa-1]
TNi(° C.) Isotropic Phase Transition Point [1]: 279 °C
Solubility CPN wt % [2]: 20 wt %
Solubility MEK wt % [2]: 10 wt %
melting point: 163 °C

C=CC(=O)OCCCCCCOc1ccc(OC(=O)[C@H]2CC[C@H](C(=O)Oc3ccc(OC(=O)[C@H]4CC[C@H](C(=O)Oc5ccc(OCCCCCCOC(=O)C=C)cc5)CC4)c4sc(=S)sc34)CC2)cc1 [VIa-7]
TNi(° C.) Isotropic Phase Transition Point [1]: 247 °C
Tsm—N(° C.) Sm—N Transition Point [1]: 164 °C
Solubility CPN wt % [2]: 20 wt %
Solubility MEK wt % [2]: <10 wt %
melting point: 124 °C
